The test system of assay [1] is goldfish pituitary fragments. As to conditions: goldfish pituitary fragments in vitro; Marchant et al. 1989; cited from earlier work.
A further assay concerns rainbow trout. As to conditions: in rainbow trout; Eilertson et al. 1993; cited from earlier work.
In assay [2] the target is T1, human somatostatin receptor subtype 1 (Homo sapiens, UniProt P30872).
T1 construct: expressed in transfected cells; host or cells: COS-7 cells, transient transfection with pCMV6b expression vector; microsomal membranes
T1 sequence (P30872 whole entry): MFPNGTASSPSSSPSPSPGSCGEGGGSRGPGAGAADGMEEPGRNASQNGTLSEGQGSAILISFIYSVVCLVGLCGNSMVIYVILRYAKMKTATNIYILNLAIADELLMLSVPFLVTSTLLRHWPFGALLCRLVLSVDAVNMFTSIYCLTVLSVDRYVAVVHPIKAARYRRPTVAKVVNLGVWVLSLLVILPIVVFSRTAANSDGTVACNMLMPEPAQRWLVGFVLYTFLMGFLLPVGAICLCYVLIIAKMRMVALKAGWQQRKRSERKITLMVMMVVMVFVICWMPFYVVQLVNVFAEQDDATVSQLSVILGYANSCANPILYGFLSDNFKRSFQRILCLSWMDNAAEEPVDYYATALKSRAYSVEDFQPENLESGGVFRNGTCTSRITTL
The assay can be described thus: Radio-receptor assay: competitive binding of somatostatins to cloned somatostatin receptor. As to conditions: microsomes from COS-7 cells transiently expressing the human SS type 1 receptor; compared with mammalian SS-14 and mammalian SS-28; FIG. 8. The protocol: Somatostatin receptor cDNA was cloned into an expression vector, transfected into a eukaryotic cell line, and expressed as a peptide on the cell's surface to characterized the binding properties of the receptor for various somatostatin ligands.
Human somatostatin receptor subtype I cDNA was graciously obtained from Dr. Graeme Bell at the University of Chicago. Clones were prepared substantially as described in Yamada et al., Proc. Natl. Acad. Sci. USA, 89, 251-255 (1992). Briefly, a cDNA library was created by inserting total cDNA into a cloning vector. Clones containing the cDNA inserts were digested with restriction endonuclease Bg1II and subsequently subcloned in the pCMV6b expression vector (Stratagene Zap Express cDNA Synthesis Kit, La Jolla, Calif.). The resulting expression vector containing the cloned somatostatin receptor was transfected into COS-7 (American Tissue Culture Collection, Manassas, Va.) cells for peptide expression.
Twenty-four hours after splitting cells (e.g., COS-7) into new T-75 culture flasks (Nalgene, Rochester, N.Y.), the cells were washed with phosphate-buffered saline (PBS) and Tris-buffered saline-dextrose (TBS-D) solutions. […]
All tubes were incubated for 30-60 minutes at 37° C. while shaking. […] The resulting pellets were counted in a gamma counter to determine the binding properties of the various ligands to the somatostatin receptor.

The target in assay [3] is T2, cloned human somatostatin receptor subtype 1 (human, UniProt P30872 1-391).
T2 construct: whole, on cells; Transiently expressed in COS-7 cells; The assay used microsomal membrane preparations of these cells, not intact cells; also called human SS type 1 receptor; human somatostatin receptor type 1
T2 sequence (P30872 whole entry): as above
The assay can be described thus: radio-receptor competition assay, displacement of 125I-[Tyr1]-SS-14 from COS-7 microsomal membranes.
Experimental: Briefly, cell membranes, 25–1000 µg, were added to two sets of tubes labeled for total and non-specific binding (in triplicate) containing the following reagents in a final volume of 300 µl.
All tubes were incubated for 30–60 minutes at 37° C. while shaking. Reactions were stopped by adding 1 ml of ice-cold assay buffer and centrifuged at 20,000×g for 15 minutes. The supernatant is aspirated off. The resulting pellets were washed once with ice-cold assay buffer and centrifuged again at 20,000×g for 15 minutes. Again, the supernatant was aspirated off. The resulting pellets were counted in a gamma counter to determine the binding properties of the various ligands to the somatostatin receptor.

Ends that are not written are not given here.

In the case of “Ala-Gly-Cys-Lys-Asn-Phe-Phe-Trp-Lys-Thr-Phe-Thr-Ser-Cys [SS-14]”, the “ability to inhibit the release of growth hormone” value (from here on “ability to inhibit the release”) in assay [1] is recorded as “equipotent”. Further, the inhibition of insulin entry with rainbow trout was “did not”.

Turning to “Ser-Ala-Asn-Ser-Asn-Pro-Ala-Met-Ala-Pro-Arg-Glu-Arg-Lys-Ala-Gly-Cys-Lys-Asn-Phe-Phe-Trp-Lys-Thr-Phe-Thr-Ser-Cys (SANSNPAMAPRERKAGCKNFFWKTFTSC; listed as Homo sapiens) [SS-28]”, the “ability to inhibit the release” value in assay [1] is listed as “equipotent”.

In the case of “salmonid SS-25: 25 amino acid PPSS-II″ proprotein containing [Tyr7, Gly10]-SS-14 at its C-terminus; synthetic (SVDNLPPRERKAGCKNFYWKGFTSC; ends and bridges not checked; cysteine pairing not given here)”, the “affinity of the human somatostatin receptor type 1 for the ligand (inhibition of binding of 125I-[Tyr1]-SS-14)” value in assay [2] is reported as “greater affinity”. Besides, in assay [1], the “ability to inhibit the release” value is “no effect”. In addition, the inhibition of insulin result in the assay on rainbow trout was “inhibited insulin”.

Regarding SANSNPAMAPRERKAGCKNFFWKTFTSC [mammalian SS-28], in assay [3], the binding result is “binds”.
